# Assay results taken from US12577248B2, “Substituted [1,2,4]triazolo[1,5-a]pyrazines as spleen tyrosine kinase inhibitors” (NANJING RUIJIE PHARMA CO., LTD., priority 2020, dated 2026).
# Where two headings read alike, the source gives them in different places.
# Target: SYK kinase (Homo sapiens, UniProt P43405)
# Test: SYK kinase assay (HTRF KinEASE-TK)
# Assay type: biochemical
# Conditions: read-out: Syk inhibition IC50
# Method: A homogeneous time-resolved fluorescence (HTRF) assay was performed to assess the potential inhibitory effect of compounds on SYK kinase. The HTRF KinEASE-TK kit (Cisbio) was used. During the step, kinase will phosphorylate the substrate, and the resulting fluorescence signal is proportional to the phosphorylation level. The assay was performed in the following steps: First, the testing compounds were diluted 1:3 in succession in DMSO. The 1× kinase buffer contained 1 volume of 5× enzymatic buffer with 4 volumes of distilled water, 5 mM MgCl2, 1 mM MnCl2, and 1 mM DTT. The assays were assembled in 384 well plates (784075, Greiner) where 10 nl of compound solutions were added into each well, and the plates were centrifuged at 1000 g for 1 min. Then, 5 μl of 2×SYK in 1× kinase buffer were added to each well. The plates were centrifuged at 1000 g for 30 s and then incubated at room temperature for 10 min. The reaction was initiated by adding […] of premixed 2×TK-substrate-biotin and ATP mixture in 1× kinase buffer to the assay plates. The plates were centrifuged at 1000 g for 30 s and incubated at room temperature for 30 min. Phosphorylation was detected by adding 5 μl of 4×Sa-XL 665 in HTRF detection buffer into each well of the assay plates. The plates were centrifuged plates at 1000 g for 30 sec, and then incubated at room temperature for 1 h. Finally, the plates were read on an Envision 2104 plate reader (PerkinElmer) and the fluorescence signal was measured at 615 nm (Cryptate) and 665 nm (XL665).
# A ratio (665/615 nm) was calculated for each well. The inhibition ratio was calculated as follow: […]
# IC50 was calculated by fitting % Inhibition values and log of compound concentrations to nonlinear regression (dose response−variable slope) with GraphPad 6.0.
IC50 (class symbols) [µM],IC50 (given as number) [µM],Compound
≤ 0.05,,"COc1cc(Nc2nc(-c3ccc4cn[nH]c4c3)cn3ncnc23)ccc1N1CCN(CC(F)(F)F)CC1 [I8, 6-(1H-indazol-6-yl)-N-(3-methoxy-4-(4-(2,2,2-trifluoroethyl)piperazin-1-yl)phenyl)-[1,2,4]triazolo[1,5-a]pyrazin-8-amine]"
0.5 to 5,,"c1nc2c(Nc3ccc(N4CC5CC4CN5C4COC4)c(OC4CC4)c3)nc(-c3ccc4cc[nH]c4c3)cn2n1 (centres unmarked) [I80, N-(3-cyclopropoxy-4-(5-(oxetan-3-yl)-2,5-diazabicyclo[2.2.1]heptan-2-yl)phenyl)-6-(1H-indol-6-yl)-[1,2,4]triazolo[1,5-a]pyrazin-8-amine]"
> 5,,"c1nc2c(Nc3ccc(N4CCC5(COC5)C4)cc3)nc(-c3ccc4cc[nH]c4c3)cn2n1 [I64, N-(4-(2-oxa-6-azaspiro[3.4]octan-6-yl)phenyl)-6-(1H-indol-6-yl)-[1,2,4]triazolo[1,5-a]pyrazin-8-amine]"
> 5,,"Fc1cc(Nc2nc(-c3ccc4cn[nH]c4c3)cn3cnnc23)ccc1N1CCOCC1 [I40, N-(3-fluoro-4-morpholinophenyl)-6-(1H-indazol-6-yl)-[1,2,4]triazolo[4,3-a]pyrazin-8-amine]"
0.05 to 0.5,,"NC(=O)c1ccc(-c2cn3ncnc3c(Nc3ccc(N4CCOCC4)cc3)n2)cc1 [I5, 4-(8-((4-morpholinophenyl)amino)-[1,2,4]triazolo[1,5-a]pyrazin-6-yl)benzamide]"
≤ 0.05,,"CCS(=O)(=O)N1CCN(c2ccc(Nc3nc(-c4ccc5cn[nH]c5c4)cn4ncnc34)cc2)CC1 [I14, N-(4-(4-(ethylsulfonyl)piperazin-1-yl)phenyl)-6-(1H-indazol-6-yl)-[1,2,4]triazolo[1,5-a]pyrazin-8-amine]"
0.05 to 0.5,,"NC(=O)c1cccc(-c2cn3ncnc3c(Nc3ccc(N4CCOCC4)cc3)n2)c1 [I6, 3-(8-((4-morpholinophenyl)amino)-[1,2,4]triazolo[1,5-a]pyrazin-6-yl)benzamide]"
> 5,,"COc1cc(Nc2nc(-c3ccc4[nH]ccc4c3)cn3cnnc23)ccc1N1CCOCC1 [I68, 6-(1H-indol-5-yl)-N-(3-methoxy-4-morpholinophenyl)-[1,2,4]triazolo[4,3-a]pyrazin-8-amine]"
0.05 to 0.5,,"CC1(C)Oc2cc(-c3cn4ncnc4c(Nc4ccc(N5CCOCC5)cc4)n3)cnc2NC1=O [I33, 2,2-dimethyl-7-(8-((4-morpholinophenyl)amino)-[1,2,4]triazolo[1,5-a]pyrazin-6-yl)-2H-pyrido[3,2-b][1,4]oxazin-3(4H)-one]"
0.05 to 0.5,,"FC(F)(F)Oc1cc(Nc2nc(-c3ccc4cn[nH]c4c3)cn3ncnc23)ccc1N1CCOCC1 [I20, 6-(1H-indazol-6-yl)-N-(4-morpholino-3-(trifluoromethoxy)phenyl)-[1,2,4]triazolo[1,5-a]pyrazin-8-amine]"
,> 10,"c1cc(N2CCOCC2)ccc1Nc1nc(-c2ccc3cn[nH]c3c2)cn2cnnc12 [I48, 6-(1H-indazol-6-yl)-N-(4-morpholinophenyl)-[1,2,4]triazolo[4,3-a]pyrazin-8-amine]"
0.05 to 0.5,,"CC(C)N1C[C@@H]2C[C@@H]1CN2c1ccc(Nc2nc(-c3ccc4cn[nH]c4c3)cn3ncnc23)cc1 [I71, 6-(1H-indazol-6-yl)-N-(4-((1S,4R)-5-isopropyl-2,5-diazabicyclo[2.2.1]heptan-2-yl)phenyl)-[1,2,4]triazolo[1,5-a]pyrazin-8-amine]"
0.5 to 5,,"COc1cc(Nc2nc(-c3ccc4c(C)n[nH]c4c3)cn3cnnc23)ccc1N1CCOCC1 [I46, N-(3-methoxy-4-morpholinophenyl)-6-(3-methyl-1H-indazol-6-yl)-[1,2,4]triazolo[4,3-a]pyrazin-8-amine]"
0.05 to 0.5,,"COc1cc(Nc2nc(-c3cnc4c(c3)OC(C)(C)C(=O)N4)cn3ncnc23)ccc1N1CCOCC1 [I32, 7-(8-((3-methoxy-4-morpholinophenyl)amino)-[1,2,4]triazolo[1,5-a]pyrazin-6-yl)-2,2-dimethyl-2H-pyrido[3,2-b][1,4]oxazin-3(4H)-one]"
> 5,,"O=C1COc2cc(-c3cn4ncnc4c(Nc4ccc5c(c4)OC(F)(F)O5)n3)cnc2N1 [I38, 7-(8-((2,2-difluorobenzo[d][1,3]dioxol-5-yl)amino)-[1,2,4]triazolo[1,5-a]pyrazin-6-yl)-2H-pyrido[3,2-b][1,4]oxazin-3(4H)-one]"
0.05 to 0.5,,"COc1cc(Nc2nc(-c3cnc4c(c3)OCC(=O)N4)cn3ncnc23)ccc1N1CCOCC1 [I30, 7-(8-((3-methoxy-4-morpholinophenyl)amino)-[1,2,4]triazolo[1,5-a]pyrazin-6-yl)-2H-pyrido[3,2-b][1,4]oxazin-3(4H)-one]"
0.5 to 5,,"COc1cc(Nc2nc(-c3ccc4[nH]ncc4c3)cn3cnnc23)ccc1N1CCOCC1 [I67, 6-(1H-indazol-5-yl)-N-(3-methoxy-4-morpholinophenyl)-[1,2,4]triazolo[4,3-a]pyrazin-8-amine]"
> 5,,"COc1cc(Nc2nc(-c3cnc4c(c3)OC(C)(C)C(=O)N4)cn3ncnc23)cc(OC)c1OC [I35, 2,2-dimethyl-7-(8-((3,4,5-trimethoxyphenyl)amino)-[1,2,4]triazolo[1,5-a]pyrazin-6-yl)-2H-pyrido[3,2-b][1,4]oxazin-3(4H)-one]"
0.05 to 0.5,,"COc1cc(Nc2nc(-c3ccc4cn[nH]c4c3)cn3ncnc23)cc(OC)c1OC [I4, 6-(1H-indazol-6-yl)-N-(3,4,5-trimethoxyphenyl)-[1,2,4]triazolo[1,5-a]pyrazin-8-amine]"
0.05 to 0.5,,"c1nc2c(Nc3ccc(N4CCOCC4)c(OC4CC4)c3)nc(-c3ccc4cn[nH]c4c3)cn2n1 [I74, N-(3-cyclopropoxy-4-morpholinophenyl)-6-(1H-indazol-6-yl)-[1,2,4]triazolo[1,5-a]pyrazin-8-amine]"
0.5 to 5,,"COc1cc(Nc2nc(-c3ccc4c(C)c[nH]c4c3)cn3cnnc23)ccc1N1CCOCC1 [I47, N-(3-methoxy-4-morpholinophenyl)-6-(3-methyl-1H-indol-6-yl)-[1,2,4]triazolo[4,3-a]pyrazin-8-amine]"
> 5,,"COc1cc(Nc2nc(-c3cnc4c(c3)OCC(=O)N4)cn3ncnc23)cc(OC)c1OC [I34, 7-(8-((3,4,5-trimethoxyphenyl)amino)-[1,2,4]triazolo[1,5-a]pyrazin-6-yl)-2H-pyrido[3,2-b][1,4]oxazin-3(4H)-one]"
> 5,,"c1cc(N2CCOCC2)ccc1Nc1nc(-c2ccc3[nH]ncc3c2)cn2cnnc12 [I65, 6-(1H-indazol-5-yl)-N-(4-morpholinophenyl)-[1,2,4]triazolo[4,3-a]pyrazin-8-amine]"
0.05 to 0.5,,"COc1ccc(Nc2nc(-c3cnc4c(c3)OCC(=O)N4)cn3ncnc23)cc1OC [I36, 7-(8-((3,4-dimethoxyphenyl)amino)-[1,2,4]triazolo[1,5-a]pyrazin-6-yl)-2H-pyrido[3,2-b][1,4]oxazin-3(4H)-one]"
0.05 to 0.5,,"COc1ccc(Nc2nc(-c3cnc4c(c3)OC(C)(C)C(=O)N4)cn3ncnc23)cc1OC [I37, 7-(8-((3,4-dimethoxyphenyl)amino)-[1,2,4]triazolo[1,5-a]pyrazin-6-yl)-2,2-dimethyl-2H-pyrido[3,2-b][1,4]oxazin-3(4H)-one]"
0.05 to 0.5,,"O=C1COc2cc(-c3cn4ncnc4c(Nc4ccc(N5CCOCC5)cc4)n3)cnc2N1 [I31, 7-(8-((4-morpholinophenyl)amino)-[1,2,4]triazolo[1,5-a]pyrazin-6-yl)-2H-pyrido[3,2-b][1,4]oxazin-3(4H)-one]"
